Measured values from patent publication US9623016B2, “Antibacterial compounds” (Emergent Virology LLC, priority 2013, dated 2017).
Converted amounts (≈) assume the structure as drawn.

Assays:
[1] = test system: S. aureus (Col); test: Minimum Bactericidal Concentration (MBC); assay type: cell-based
Experimental: (§1) MBC is the lowest concentration of compound required to kill an organism. […] In the case of small colony variants, growth might not occur earlier than 48 hours.

[2] = test system: P. aeruginosa 4858; test: Minimum Bactericidal Concentration (MBC); assay type: cell-based
Experimental: as §1

[3] = test system: B. subtilis; test: Minimum Bactericidal Concentration (MBC); assay type: cell-based
Experimental: as §1

[4] = test system: S. aureus (8324-5); test: Minimum Bactericidal Concentration (MBC); assay type: cell-based
Experimental: as §1

[5] = test system: S. aureus (USA300); test: Minimum Bactericidal Concentration (MBC); assay type: cell-based
Experimental: as §1

[6] = test system: S. aureus; test: Minimum Bactericidal Concentration (MBC); assay type: cell-based; conditions: UV-5; S. Aureus NCTC8325-4
Experimental: as §1

[7] = test system: S. aureus USA300; test: Disc diffusion; assay type: cell-based
Experimental: (§2) Different concentrations of antimicrobial discs were made by incorporation of defined amount of the compound and were stored in a refrigerator (4° C.). Plates were swabbed in three directions with test bacteria to give uniform growth with 0.5 McFarland inocula. Antimicrobial discs were applied to the plates as soon as possible, but no longer than 15 minutes after inoculation. The plates were incubated at 37° C. for 18 hours. The growth inhibition zones around the disc were measured.

[8] = test system: P. aeruginosa 4858; test: Disc diffusion; assay type: cell-based
Experimental: as §2

[9] = test system: B. subtilus ATCC 6051; test: Disc diffusion; assay type: cell-based
Experimental: as §2

[10] = test system: P. aeruginosa 4990; test: Disc diffusion; assay type: cell-based
Experimental: as §2

[11] = test system: S. aureus 8325-4; test: Disc diffusion; assay type: cell-based
Experimental: as §2

[12] = test system: S. pneumoniae ATCC 6301; test: Disc diffusion; assay type: cell-based
Experimental: as §2

[13] = test system: E. coli In-house WT (SLR-IBT); test: Disc diffusion; assay type: cell-based
Experimental: as §2

[14] = test system: P. aeruginosa 4961; test: Disc diffusion; assay type: cell-based
Experimental: as §2

[15] = test system: E. coli K12; test: Disc diffusion; assay type: cell-based
Experimental: as §2

[16] = test system: S. aureus Col (MRSA); test: Disc diffusion; assay type: cell-based
Experimental: as §2

[17] = test system: Staphylococcus aureus USA300
Experimental: The challenge inoculum included 6.13e4 cfu USA300+3% Hog mucin which causes bacteremia/sepsis within 24-72 h. […] The mice used were 6-8 week old female BALB/c mice in groups of 10. One group of 5 mice was also included to examine the potential toxicity of 3% hog mucin. Endpoint was day 10 post infection, death, or euthanasia Animals displaying severe illness as determined by >30% weight loss, extreme lethargy, or paralysis were euthanized. Observation included daily weight, health checks, and temperatures starting with the initiation of dosing until 10 days post challenge.

[18] = test system: S. aureus (USA300); test: Minimum Inhibitory Concentration (MIC); assay type: cell-based; conditions: for visible growth: Table 3; for growth (OD600): Table 4
Experimental: The MIC assay is a technique used to determine the lowest concentration of a particular antibiotic needed to inhibit visible growth of bacteria. In this method, two fold serial dilutions of the compound were prepared in broth media. An inoculum of overnight bacterial cultures will be prepared in the same broth medium. The serial dilution tubes will be inoculated with 0.025 ml of undiluted over-night culture (1:100), a 1×10-2 dilution (1:10,000), or a 1×10-4 dilution (1:1,000,000) of bacterial suspension. Results were recorded after 24 hour incubation at 35° C. without shaking by measuring OD600. The MIC is determined by the lowest concentration of compound where no growth is visible.

Which “growth after re-inoculation on BHI agar” value ([1]; UV-5 0.16 mg/ml) does the source give for [N-]=[N+]=Nc1ccc(NCCCCCCN2C[C@H](O)[C@@H](O)[C@H](O)[C@H]2CO)c([N+](=O)[O-])c1 [UV-5, N—(N-{4′-azido-2′-nitrophenyl}-6-aminohexyl)deoxynojirimycin] here?
Its value is “+”.

What about the “growth after re-inoculation on BHI agar” value ([1]; UV-5 0.3 mg/ml) of the same molecule?
Its value is “+”.

What about the “growth after re-inoculation on BHI agar” value ([1]; UV-5 0.62 mg/ml) of the same molecule?
The value was “+”.

What about the “growth after re-inoculation on BHI agar” value ([1]; UV-5 10 mg/ml) of the same molecule?
Its value is “−”.

What about the “growth after re-inoculation on BHI agar” value ([1]; UV-5 20 mg/ml) of the same molecule?
The value was “−”.

And the MBC ([1]; UV-5, S. aureus COL MRSA)?
Its MBC is 2500 µg/mL (≈ 5.89 mM).

And the MBC ([2]; UV-5)?
Its MBC is 5000 µg/mL (≈ 11.8 mM).

What about the “growth after re-inoculation on BHI agar” value ([2]; UV-5 0.16 mg/ml) of the same molecule?
Its value is “+”.

What about the “growth after re-inoculation on BHI agar” value ([2]; UV-5 0.3 mg/ml) of the same molecule?
Its value is “+”.

And the “growth after re-inoculation on BHI agar” value ([2]; UV-5 0.62 mg/ml)?
The value was “+”.

What about the “growth after re-inoculation on BHI agar” value ([2]; UV-5 2.5 mg/ml) of the same molecule?
The value was “+”.

What about the “growth after re-inoculation on BHI agar” value ([2]; UV-5 5 mg/ml) of the same molecule?
Its value is “−”.

And the “growth after re-inoculation on BHI agar” value ([2]; UV-5 10 mg/ml)?
Its value is “−”.

And the “growth after re-inoculation on BHI agar” value ([2]; UV-5 20 mg/ml)?
Its value is “−”.

What about the MBC ([3]; UV-5) of the same molecule?
The MBC was 2500 µg/mL (≈ 5.89 mM).

And the “growth after re-inoculation on BHI agar” value ([3]; UV-5 0.16 mg/ml)?
The value was “+”.

And the “growth after re-inoculation on BHI agar” value ([3]; UV-5 0.3 mg/ml)?
The value was “+”.

And the “growth after re-inoculation on BHI agar” value ([3]; UV-5 0.62 mg/ml)?
Its value is “+”.

And the “growth after re-inoculation on BHI agar” value ([3]; UV-5 10 mg/ml)?
The value was “−”.

And the “growth after re-inoculation on BHI agar” value ([3]; UV-5 20 mg/ml)?
Its value is “−”.

What about the “growth after re-inoculation on BHI agar” value ([4]; UV-5 0.16 mg/ml) of the same molecule?
The value was “+”.

And the “growth after re-inoculation on BHI agar” value ([4]; UV-5 0.3 mg/ml)?
Its value is “+”.

What about the “growth after re-inoculation on BHI agar” value ([4]; UV-5 0.62 mg/ml) of the same molecule?
The value was “+”.

And the “growth after re-inoculation on BHI agar” value ([4]; UV-5 2.5 mg/ml)?
Its value is “+”.

What about the “growth after re-inoculation on BHI agar” value ([4]; UV-5 5 mg/ml) of the same molecule?
The value was “+”.

And the “growth after re-inoculation on BHI agar” value ([4]; UV-5 10 mg/ml)?
Its value is “−”.

And the “growth after re-inoculation on BHI agar” value ([4]; UV-5 20 mg/ml)?
Its value is “−”.

What about the MBC ([5]; UV-5) of the same molecule?
The MBC was 20000 µg/mL (≈ 47.1 mM).

What about the “growth after re-inoculation on BHI agar” value ([5]; UV-5 0.16 mg/ml) of the same molecule?
The value was “+”.

What about the “growth after re-inoculation on BHI agar” value ([5]; UV-5 0.3 mg/ml) of the same molecule?
The value was “+”.

What about the “growth after re-inoculation on BHI agar” value ([5]; UV-5 0.62 mg/ml) of the same molecule?
Its value is “+”.

What about the “growth after re-inoculation on BHI agar” value ([5]; UV-5 2.5 mg/ml) of the same molecule?
Its value is “+”.

And the “growth after re-inoculation on BHI agar” value ([5]; UV-5 5 mg/ml)?
Its value is “+”.

What about the “growth after re-inoculation on BHI agar” value ([5]; UV-5 10 mg/ml) of the same molecule?
The value was “+”.

What about the “growth after re-inoculation on BHI agar” value ([5]; UV-5 20 mg/ml) of the same molecule?
Its value is “−”.

What about the MBC [6] of the same molecule?
Its MBC is 10000 µg/mL (≈ 23.6 mM).

What about the Inhibition zone diameter ([7]; UV-5 160 ug disc) of the same molecule?
Its Inhibition zone diameter is 16 mm.

What about the Inhibition zone diameter ([8]; UV-5 160 ug disc) of the same molecule?
Its Inhibition zone diameter is 6 mm.

And the Inhibition zone diameter ([9]; UV-5 160 ug disc)?
Its Inhibition zone diameter is 18 mm.

And the Inhibition zone diameter ([10]; UV-5 160 ug disc)?
The Inhibition zone diameter was 6 mm.

And the Inhibition zone diameter ([11]; UV-5 160 ug disc)?
Its Inhibition zone diameter is 16 mm.

What about the Inhibition zone diameter ([12]; UV-5 160 ug disc) of the same molecule?
Its Inhibition zone diameter is 17 mm.

What about the Inhibition zone diameter ([13]; UV-5 160 ug disc) of the same molecule?
Its Inhibition zone diameter is 15 mm.

What about the Inhibition zone diameter ([14]; UV-5 160 ug disc) of the same molecule?
The Inhibition zone diameter was 14 mm.

And the Inhibition zone diameter ([15]; UV-5 160 ug disc)?
Its Inhibition zone diameter is 12 mm.

And the Inhibition zone diameter ([16]; UV-5 160 ug disc)?
The Inhibition zone diameter was 16 mm.

What about the “significance of survival increase vs water” value ([17]; 100 mg/kg UV-5 BID) of the same molecule?
Its value is “not a statistically significant increase in survival”.

What about the survival ([17]; 100 mg/kg UV-5 orally BID for 10 days, from 3 days before IP challenge, water control 30%) of the same molecule?
The survival was 70%.

And the “toxicity at the dose/regimen used” value ([17]; 100 mg/kg UV-5 orally BID, mice)?
The value was “some toxicity was observed”.

CC[C@H]1OC(=O)[C@H](C)[C@@H](O[C@H]2C[C@@](C)(OC)[C@@H](O)[C@H](C)O2)[C@H](C)[C@@H](O[C@@H]2O[C@H](C)C[C@H](N(C)C)[C@H]2O)[C@](C)(O)C[C@@H](C)C(=O)[C@H](C)[C@@H](O)[C@]1(C)O [Erythromycin, reference compound] was tested. Which visible growth ([18]; Erythromycin 0.20 ug/ml) did it give?
The visible growth was “+”.

And the “growth (OD600)” value ([18]; Erythromycin 0.20 ug/ml)?
Its value is “+ (+ OD600 <0.05)”.

And the visible growth ([18]; Erythromycin 0.39 ug/ml)?
The visible growth was “+”.

And the “growth (OD600)” value ([18]; Erythromycin 0.39 ug/ml)?
Its value is “+ (+ OD600 <0.05)”.

What about the visible growth ([18]; Erythromycin 0.78 ug/ml) of the same molecule?
The visible growth was “+”.

And the “growth (OD600)” value ([18]; Erythromycin 0.78 ug/ml)?
The value was “+ (+ OD600 <0.05)”.

What about the visible growth ([18]; Erythromycin 1.56 ug/ml) of the same molecule?
The visible growth was “+”.

What about the “growth (OD600)” value ([18]; Erythromycin 1.56 ug/ml) of the same molecule?
The value was “+ (+ OD600 <0.05)”.

What about the visible growth ([18]; Erythromycin 3.13 ug/ml) of the same molecule?
The visible growth was “+”.

What about the “growth (OD600)” value ([18]; Erythromycin 3.13 ug/ml) of the same molecule?
The value was “+ (+ OD600 <0.05)”.

And the visible growth ([18]; Erythromycin 6.25 ug/ml)?
Its visible growth is “+”.

And the “growth (OD600)” value ([18]; Erythromycin 6.25 ug/ml)?
The value was “+ (+ OD600 <0.05)”.

And the visible growth ([18]; Erythromycin 25.00 ug/ml)?
The visible growth was “−”.

What about the “growth (OD600)” value ([18]; Erythromycin 25.00 ug/ml) of the same molecule?
The value was “− (− OD600 >0.05)”.

And the visible growth ([18]; Erythromycin 50 ug/ml)?
The visible growth was “−”.

And the “growth (OD600)” value ([18]; Erythromycin 50 ug/ml)?
The value was “− (− OD600 >0.05)”.

What about the visible growth ([18]; Erythromycin 100 ug/ml) of the same molecule?
Its visible growth is “−”.

And the “growth (OD600)” value ([18]; Erythromycin 100 ug/ml)?
The value was “− (− OD600 >0.05)”.

And the zone of inhibition at 10 µg/disc ([7]; Staphylococcus aureus, USA300, read-out: Inhibition zone diameter)?
Its zone of inhibition at 10 µg/disc is 15 mm.

What about the zone of inhibition at 10 µg/disc ([8]; Pseudomonas aeruginosa, 4858, read-out: Inhibition zone diameter) of the same molecule?
The zone of inhibition at 10 µg/disc was 8 mm.

And the zone of inhibition at 10 µg/disc ([9]; read-out: Inhibition zone diameter)?
Its zone of inhibition at 10 µg/disc is 35 mm.

What about the zone of inhibition at 10 µg/disc ([10]; Pseudomonas aeruginosa, 4990, read-out: Inhibition zone diameter) of the same molecule?
The zone of inhibition at 10 µg/disc was 20 mm.

And the zone of inhibition at 10 µg/disc ([11]; Staphylococcus aureus, 83254, read-out: Inhibition zone diameter)?
Its zone of inhibition at 10 µg/disc is 35 mm.

And the zone of inhibition at 10 µg/disc ([12]; Streptococcus pneumoniae, ATCC6301, read-out: Inhibition zone diameter)?
The zone of inhibition at 10 µg/disc was 38 mm.

And the zone of inhibition at 10 µg/disc ([13]; Escherichia coli, read-out: Inhibition zone diameter)?
Its zone of inhibition at 10 µg/disc is 15 mm.

And the zone of inhibition at 10 µg/disc ([14]; Pseudomonas aeruginosa, 4961, read-out: Inhibition zone diameter)?
The zone of inhibition at 10 µg/disc was 18 mm.

And the zone of inhibition at 10 µg/disc ([15]; Escherichia coli, K12, read-out: Inhibition zone diameter)?
Its zone of inhibition at 10 µg/disc is 20 mm.

What about the zone of inhibition at 10 µg/disc ([16]; Staphylococcus aureus, MRSA, read-out: Inhibition zone diameter) of the same molecule?
Its zone of inhibition at 10 µg/disc is 42 mm.
